In PubChem BioAssay AID2060485 (Molecular Pharmacology Branch, DTP, NCI, 2025):

Test system: A375 multi-cell spheroids with HUVEC/MSC, viability
Assay: Anticancer human tumor A375 cell line growth inhibition [GQUAD];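 note: spheroids exposed to compounds for seven days before readout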
Settings: for IC50: curve of first compound; for viability, T/C: stronger effect = lower value
In short: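 Multi-cell-type spheroids of tumor cells with HUVEC and mesenchymal stem cells, treated with drug combinations. Concentrations descend in half-log steps from near clinical Cmax, or from 10 microM where Cmax is unknown; viability read-out.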

[1] = second compound 0.0316 µM, first compound 0.0316 µM
[2] = second compound 0.0316 µM, first compound 0.1 µM
[3] = second compound 0.0316 µM, first compound 0.316 µM
[4] = second compound 0.0316 µM, first compound 1 µM
[5] = second compound 0.0316 µM, first compound 3.16 µM
[6] = second compound 0.0316 µM, first compound 10 µM
[7] = second compound 0.1 µM, first compound 0.0316 µM
[8] = second compound 0.1 µM, first compound 0.1 µM
[9] = second compound 0.1 µM, first compound 0.316 µM
[10] = second compound 0.1 µM, first compound 1 µM
[11] = second compound 0.1 µM, first compound 3.16 µM
[12] = second compound 0.1 µM, first compound 10 µM
[13] = second compound 0.316 µM, first compound 0.0316 µM
[14] = second compound 0.316 µM, first compound 0.1 µM
[15] = second compound 0.316 µM, first compound 0.316 µM
[16] = second compound 0.316 µM, first compound 1 µM
[17] = second compound 0.316 µM, first compound 3.16 µM
[18] = second compound 0.316 µM, first compound 10 µM
[19] = second compound 1 µM, first compound 0.0316 µM
[20] = second compound 1 µM, first compound 0.1 µM
[21] = second compound 1 µM, first compound 0.316 µM
[22] = second compound 1 µM, first compound 1 µM
[23] = second compound 1 µM, first compound 3.16 µM
[24] = second compound 1 µM, first compound 10 µM
[25] = second compound 3.16 µM, first compound 0.0316 µM
[26] = second compound 3.16 µM, first compound 0.1 µM
[27] = second compound 3.16 µM, first compound 0.316 µM
[28] = second compound 3.16 µM, first compound 1 µM
[29] = second compound 3.16 µM, first compound 3.16 µM
[30] = second compound 3.16 µM, first compound 10 µM
[31] = second compound 10 µM, first compound 0.0316 µM
[32] = second compound 10 µM, first compound 0.1 µM
[33] = second compound 10 µM, first compound 0.316 µM
[34] = second compound 10 µM, first compound 1 µM
[35] = second compound 10 µM, first compound 3.16 µM
[36] = second compound 10 µM, first compound 10 µM

Q: Which IC50 (second compound 0.0316 µM) does the source give for `CCCS(=O)(=O)Nc1ccc(F)c(C(=O)c2c[nH]c3ncc(-c4ccc(Cl)cc4)cc23)c1F` + Cc1[nH]c2ccc(F)cc2c1-c1nc2c3cccnc3c3ncccc3c2[nH]1 here?
A: < 31.6 nM

Q: And the IC50 (second compound 0.1 µM)?
A: < 31.6 nM

Q: And the IC50 (second compound 0.316 µM)?
A: < 31.6 nM

Q: What about the IC50 (second compound 1 µM) of the same compound?
A: < 31.6 nM

Q: What about the IC50 (second compound 3.16 µM) of the same compound?
A: < 31.6 nM

Q: What about the IC50 (second compound 10 µM) of the same compound?
A: < 31.6 nM

Q: What about the viability, T/C [1] of the same compound?
A: 47.1%

Q: And the viability, T/C [2]?
A: 14.9%

Q: And the viability, T/C [3]?
A: 7.54%

Q: And the viability, T/C [4]?
A: 5.63%

Q: What about the viability, T/C [5] of the same compound?
A: 6%

Q: What about the viability, T/C [6] of the same compound?
A: 6.44%

Q: What about the viability, T/C [7] of the same compound?
A: 40.4%

Q: And the viability, T/C [8]?
A: 15.4%

Q: What about the viability, T/C [9] of the same compound?
A: 8.57%

Q: And the viability, T/C [10]?
A: 6.32%

Q: And the viability, T/C [11]?
A: 5.78%

Q: What about the viability, T/C [12] of the same compound?
A: 5.39%

Q: What about the viability, T/C [13] of the same compound?
A: 43.6%

Q: And the viability, T/C [14]?
A: 13.7%

Q: What about the viability, T/C [15] of the same compound?
A: 8.7%

Q: What about the viability, T/C [16] of the same compound?
A: 6.15%

Q: What about the viability, T/C [17] of the same compound?
A: 5.37%

Q: And the viability, T/C [18]?
A: 4.44%

Q: And the viability, T/C [19]?
A: 32%

Q: What about the viability, T/C [20] of the same compound?
A: 14.6%

Q: What about the viability, T/C [21] of the same compound?
A: 7.98%

Q: And the viability, T/C [22]?
A: 5.57%

Q: What about the viability, T/C [23] of the same compound?
A: 5%

Q: And the viability, T/C [24]?
A: 1.74%

Q: What about the viability, T/C [25] of the same compound?
A: 24.6%

Q: And the viability, T/C [26]?
A: 10%

Q: And the viability, T/C [27]?
A: 6.35%

Q: And the viability, T/C [28]?
A: 3.57%

Q: And the viability, T/C [29]?
A: 1.79%

Q: And the viability, T/C [30]?
A: 0.23%

Q: What about the viability, T/C [31] of the same compound?
A: 30.4%

Q: And the viability, T/C [32]?
A: 13.4%

Q: What about the viability, T/C [33] of the same compound?
A: 7.1%

Q: And the viability, T/C [34]?
A: 4.44%

Q: And the viability, T/C [35]?
A: 3.27%

Q: And the viability, T/C [36]?
A: 0.2%

Q: Which results are given for `CC1COCCN1c1cc(C2(O)CC3CCC(C2)O3)c2cnn(-c3ccn[nH]3)c2n1` (centres undefined) + CN(C)c1ccc(Nc2c3ccc(NC(=O)CCN4CCCC4)cc3nc3cc(NC(=O)CCN4CCCC4)ccc23)cc1?
A: IC50 (second compound 0.0316 µM): 199 nM; IC50 (second compound 0.1 µM): 188 nM; IC50 (second compound 0.316 µM): 210 nM; IC50 (second compound 1 µM): 203 nM; IC50 (second compound 3.16 µM): 226 nM; IC50 (second compound 10 µM): 204 nM; viability, T/C [1]: 94.4%; viability, T/C [2]: 70.8%; viability, T/C [3]: 36.1%; viability, T/C [4]: 15.5%; viability, T/C [5]: 11.3%; viability, T/C [6]: 6.63%; viability, T/C [7]: 97.4%; viability, T/C [8]: 70.4%; viability, T/C [9]: 32.7%; viability, T/C [10]: 15.7%; viability, T/C [11]: 8.49%; viability, T/C [12]: 6.23%; viability, T/C [13]: 101%; viability, T/C [14]: 70.7%; viability, T/C [15]: 40.5%; viability, T/C [16]: 13.9%; viability, T/C [17]: 10.9%; viability, T/C [18]: 7.23%; viability, T/C [19]: 97.9%; viability, T/C [20]: 72.4%; viability, T/C [21]: 35.6%; viability, T/C [22]: 16.3%; viability, T/C [23]: 11.7%; viability, T/C [24]: 7.1%; viability, T/C [25]: 97.2%; viability, T/C [26]: 72.7%; viability, T/C [27]: 41%; viability, T/C [28]: 17.8%; viability, T/C [29]: 11.1%; viability, T/C [30]: 7.14%; viability, T/C [31]: 87.7%; viability, T/C [32]: 67.8%; viability, T/C [33]: 39.7%; viability, T/C [34]: 16%; viability, T/C [35]: 11.5%; viability, T/C [36]: 6.9%
